# Active and inactive are the calls of the source. The calls are words filed in the database; no cut-off is given here.
# Assays:
# PANC-1 [1] = assay: Cytotoxicity against human PANC-1 cells assessed as inhibition of cell proliferation measured after 48 hrs by MTT assay; assay type: functional, cell-based; settings: PANC-1, 48 h
# HepG2 [2] = assay: Cytotoxicity against human HepG2 cells assessed as inhibition of cell proliferation measured after 48 hrs by MTT assay; assay type: functional, cell-based; settings: HepG2, 48 h
# L02 = assay: Cytotoxicity against human HL7702 cells assessed as inhibition of cell proliferation measured after 48 hrs by MTT assay; assay type: cell-based; settings: L02, 48 h
# NCI-H1975 [3] = assay: Cytotoxicity against human NCI-H1975 cells assessed as inhibition of cell proliferation measured after 48 hrs by MTT assay; assay type: functional, cell-based; settings: NCI-H1975, 48 h
# HeLa [4] = assay: Cytotoxicity against human HeLa cells assessed as inhibition of cell proliferation measured after 48 hrs by MTT assay; assay type: functional, cell-based
# [5] = Cytotoxicity against human A549/DDP cells assessed as inhibition of cell proliferation measured after 48 hrs by MTT assay; assay type: functional, cell-based
# MCF7 [6] = assay: Cytotoxicity against human MCF7 cells assessed as inhibition of cell proliferation measured after 48 hrs by MTT assay; assay type: functional, cell-based; settings: MCF7, 48 h
# PC-3 [7] = assay: Cytotoxicity against human PC-3 cells assessed as inhibition of cell proliferation measured after 48 hrs by MTT assay; assay type: functional, cell-based; settings: PC-3, 48 h
# [8] = Cytotoxicity against human HBE cells assessed as inhibition of cell proliferation measured after 48 hrs by MTT assay; assay type: cell-based
# NCI-H1299 [9] = assay: Cytotoxicity against human NCI-H1299 cells assessed as inhibition of cell proliferation measured after 48 hrs by MTT assay; assay type: functional, cell-based; settings: NCI-H1299, 48 h
# [10] = Potency index, ratio of TP IC50 to test compound IC50 for cytotoxicity against human A549/DDP cells; assay type: functional
# NCI-H1975 [11] = assay: Potency index, ratio of TP IC50 to test compound IC50 for cytotoxicity against human NCI-H1975 cells; assay type: functional
# MCF7 [12] = assay: Potency index, ratio of TP IC50 to test compound IC50 for cytotoxicity against human MCF7 cells; assay type: functional
# HeLa [13] = assay: Potency index, ratio of TP IC50 to test compound IC50 for cytotoxicity against human HeLa cells; assay type: functional
# NCI-H1299 [14] = assay: Potency index, ratio of TP IC50 to test compound IC50 for cytotoxicity against human NCI-H1299 cells; assay type: functional
# PC-3 [15] = assay: Potency index, ratio of TP IC50 to test compound IC50 for cytotoxicity against human PC-3 cells; assay type: functional
# PANC-1 [16] = assay: Potency index, ratio of TP IC50 to test compound IC50 for cytotoxicity against human PANC-1 cells; assay type: functional
# HepG2 [17] = assay: Potency index, ratio of TP IC50 to test compound IC50 for cytotoxicity against human HepG2 cells; assay type: functional
# HepG2 [18] = assay: Antitumor activity against human HepG2 cells xenografted in zebra fish AB assessed as tumor growth inhibition at 1 uM measured after 48 hrs by fluorescence microscopic analysis; assay type: functional, cell-based
# [19] = Toxicity in zebrafish AB assessed as pericardial edema at 1 uM; set-up: species or system Danio rerio; settings: in vivo
# [20] = Hepatotoxicity in transgenic zebrafish Tg(1-fabp:EGFP) assessed as liver damage by measuring decrease in fluorescence intensity and area at 0.5 uM measured after 96 hrs; assay type: toxicity, tissue-based, Danio rerio; settings: in vivo
# [21] = Toxicity in zebrafish AB assessed as increase in embryo malformation rate at 0.5 to 2 uM measured at 72 hrs postfertilization; set-up: species or system Danio rerio; settings: in vivo, dose 0.5-2 µM
# [22] = Toxicity in zebrafish AB assessed as mortality at 0.05 to 2 uM measured at 72 hrs postfertilization; set-up: species or system Danio rerio; settings: in vivo, dose 0.05-2 µM
# [23] = Toxicity in zebrafish AB assessed as decrease in hatching rate at 0.25 to 2 uM measured at 72 hrs postfertilization; set-up: species or system Danio rerio; settings: in vivo, dose 0.25-2 µM
# [24] = Toxicity in zebrafish AB assessed as decrease in body length at 0.25 to 2 uM measured at 72 hrs postfertilization; set-up: species or system Danio rerio; settings: in vivo, dose 0.25-2 µM
# HepG2 [25] = assay: Antitumor activity against human HepG2 cells xenografted in zebra fish AB assessed as tumor growth inhibition at 0.5 to 1 uM measured after 48 hrs by fluorescence microscopic analysis; assay type: functional, cell-based; settings: dose 0.5-1 µM
# [26] = Toxicity in 12-month old zebrafish assessed as mortality at 1.6 uM; set-up: species or system Danio rerio; settings: in vivo
Compound,IC50 (PANC-1 [1]) [nM],IC50 (HepG2 [2]) [nM],IC50 (L02) [nM],IC50 (NCI-H1975 [3]) [nM],IC50 (HeLa [4]) [nM],IC50 [5] [nM],IC50 (MCF7 [6]) [nM],IC50 (PC-3 [7]) [nM],IC50 [8] [nM],IC50 (NCI-H1299 [9]) [nM],also measured
CC(C)[C@]12O[C@H]1[C@@H]1O[C@]13[C@]1(O[C@H]1C[C@H]1C4=C(CC[C@@]13C)C(=O)OC4)[C@@H]2OC(=O)CCCCCC[P+](c1ccccc1)(c1ccccc1)c1ccccc1,239,135,319,145,269,> 10000,316,145,136,242,
CCCCCCC(=O)O[C@@H]1[C@@]2(C(C)C)O[C@H]2[C@@H]2O[C@]23[C@]12O[C@H]2C[C@H]1C2=C(CC[C@@]13C)C(=O)OC2,169,52,42,82,242,> 10000,213,189,119,134,
CC(C)[C@]12O[C@H]1[C@@H]1O[C@]13[C@]1(O[C@H]1C[C@H]1C4=C(CC[C@@]13C)C(=O)OC4)[C@@H]2OC(=O)CCCCCCBr,211,65,75,98,252,> 10000,92,42,116,89,
CCCCCC(=O)O[C@@H]1[C@@]2(C(C)C)O[C@H]2[C@@H]2O[C@]23[C@]12O[C@H]2C[C@H]1C2=C(CC[C@@]13C)C(=O)OC2,86,74,153,81,340,> 10000,644,157,101,216,
CCCCCCCC(=O)O[C@@H]1[C@@]2(C(C)C)O[C@H]2[C@@H]2O[C@]23[C@]12O[C@H]2C[C@H]1C2=C(CC[C@@]13C)C(=O)OC2,137,111,63,152,449,> 10000,554,170,141,194,
CC(C)[C@]12O[C@H]1[C@@H]1O[C@]13[C@]1(O[C@H]1C[C@H]1C4=C(CC[C@@]13C)C(=O)OC4)[C@@H]2OC(=O)CCCC[P+](c1ccccc1)(c1ccccc1)c1ccccc1.[Br-],13400,24200,17400,1380,22900,> 10000,18700,26400,6270,2240,Ratio IC50 [10]: 100; Ratio IC50 (NCI-H1975 [11]): 100; Ratio IC50 (MCF7 [12]): 100; Ratio IC50 (HeLa [13]): 100; Ratio IC50 (NCI-H1299 [14]): 100; Ratio IC50 (PC-3 [15]): 100; Ratio IC50 (PANC-1 [16]): 100; Ratio IC50 (HepG2 [17]): 100
COc1cccc2c1C(=O)c1c(O)c3c(c(O)c1C2=O)C[C@@](O)(C(=O)CO)C[C@@H]3O[C@H]1C[C@H](N)[C@H](O)[C@H](C)O1 [DOXORUBICIN],3100,1970,351,2680,2090,10800,,539,1260,1300,Activity (HepG2 [18]): Active
CC(C)[C@]12O[C@H]1[C@@H]1O[C@]13[C@]1(O[C@H]1C[C@H]1C4=C(CC[C@@]13C)C(=O)OC4)[C@@H]2OC(=O)CCCCBr,1220,231,84,163,719,> 10000,384,189,266,232,
CCCCCCCCCCC(=O)O[C@@H]1[C@@]2(C(C)C)O[C@H]2[C@@H]2O[C@]23[C@]12O[C@H]2C[C@H]1C2=C(CC[C@@]13C)C(=O)OC2,320,292,188,95,473,> 10000,471,1260,153,333,
CC(C)[C@]12O[C@H]1[C@@H]1O[C@]13[C@]1(O[C@H]1C[C@H]1C4=C(CC[C@@]13C)C(=O)OC4)[C@@H]2OC(=O)CCCCCCCBr,137,138,88,36,265,> 10000,300,163,132,89,
CCCCC(=O)O[C@@H]1[C@@]2(C(C)C)O[C@H]2[C@@H]2O[C@]23[C@]12O[C@H]2C[C@H]1C2=C(CC[C@@]13C)C(=O)OC2,140,489,317,525,809,> 10000,1690,985,327,505,
CC(C)[C@]12O[C@H]1[C@@H]1O[C@]13[C@]1(O[C@H]1C[C@H]1C4=C(CC[C@@]13C)C(=O)OC4)[C@@H]2OC(=O)CCCCCBr,387,147,85,208,386,> 10000,363,79,170,116,
CC(C)[C@]12O[C@H]1[C@@H]1O[C@]13[C@]1(O[C@H]1C[C@H]1C4=C(CC[C@@]13C)C(=O)OC4)[C@@H]2OC(=O)CCCCCCCCCC[P+](c1ccccc1)(c1ccccc1)c1ccccc1,186,355,415,265,617,1020,192,149,212,381,
CC(C)[C@]12O[C@H]1[C@@H]1O[C@]13[C@]1(O[C@H]1C[C@H]1C4=C(CC[C@@]13C)C(=O)OC4)[C@@H]2OC(=O)CCCCCCC[P+](c1ccccc1)(c1ccccc1)c1ccccc1,165,60,127,190,331,> 10000,312,163,123,202,
CC(C)[C@]12O[C@H]1[C@@H]1O[C@]13[C@]1(O[C@H]1C[C@H]1C4=C(CC[C@@]13C)C(=O)OC4)[C@@H]2OC(=O)CCCCCCCCCCBr,366,625,227,381,1080,> 10000,426,814,479,557,
CC(C)[C@]12O[C@H]1[C@@H]1O[C@]13[C@]1(O[C@H]1C[C@H]1C4=C(CC[C@@]13C)C(=O)OC4)[C@@H]2O [TRIPTOLIDE],56,33,21,19,43,> 10000,22,21,30,49,Activity [19]: Toxic; Activity [20]: Toxic; Activity [21]: Toxic; Activity [22]: Non-Toxic; Activity [23]: Toxic; Activity (HepG2 [18]): Active; Activity [24]: Toxic; Activity (HepG2 [25]): Active; mortality at 1.6 µM [26]: 100%
